According to patent publication US20250249025A1, “DRUG DELIVERY CARRIER UTILIZING PROPERTY OF D-ALLOSE BEING UPTAKEN BY CANCER CELL, DRUG DELIVERY METHOD, AND COMPOSITION FOR TREATING RENAL CELL CARCINOMA” (NATIONAL UNIVERSITY CORPORATION KAGAWA UNIVERSITY, priority 2019, published 2025):

What was measured:
[1] = system: human bladder carcinoma cell line RT112; assay: Rare sugar uptake experiment, sugar content in disrupted cell suspension of RT112; assay type: cell-based
Procedure: (§1) An uptake amount of a rare sugar, which had been added to a medium, into carcinoma cells was analyzed using the cell lines of three types of cancers. As the rare sugar, four kinds, that is, D-allose, D-allulose (D-psicose), L-allulose (L-psicose), and allitol were used, while D-glucose and fructose were used as a monosaccharide which was not a rare sugar.
(§2) Cells of each of the cell lines were cultured in RPMI-1640 media and during culturing, six sugars were each added to the resulting media and cultured. After culturing, an amount of each sugar taken up into the cells was analyzed. The medium to which no sugar was added during culturing was used as a control.
(§3) Used were human bladder carcinoma cell lines (RT112, 253), and J82), human prostatic carcinoma cell lines (LNCa, Du145, and PC-3), and human renal cell carcinoma cell lines (ACHN, Caki-I, and Caki-II).
(§4) After cells were cultured in RPMI-1640 (2000 mg D-glucose/L) media, the above monosaccharides and rare sugars were added to the resulting media, respectively. Described specifically, they were following seven combinations: RPMI-1640 alone (control), RPMI-1640+D-glucose, RPMI-1640+L-allulose, RPMI-1640+D-allulose, RPMI-1640+D-fructose, RPMI-1640+D-allose, and RPMI-1640+D-allitol. The final concentration of the sugar in the medium was adjusted to 10 mM and no sugar was added in the control.
(§5) Five-ml portions of a 3.0×10^4 cells/ml cell suspension prepared using RPMI-1640 were seeded in dishes having a diameter of 6 cm (1.5×10^5 cells/dish) and cultured for 24 hours in the RPMI-1640 medium containing 2000 mg/l of D-glucose as a nutrient source. Twenty-four hours later, the media were changed to the culture solutions containing the monosaccharides and rare sugars described above in 2), respectively, followed by culturing for 48 hours.
(§6) After culturing for 48 hours, the attached human carcinoma cells were mechanically separated and collected in a Spitz tube together with the culture solution and floating cells. After the supernatant formed by centrifugation (4° C., 1200 rpm, and 5 minutes) was removed to obtain cell pellets alone, 5 ml of a phosphate buffer physiological saline (PBS) was added for the purpose of washing to obtain a cell suspension of the cell pellets. A gain, the resulting cell suspension was centrifuged at 4° C. and 1200 rpm for 5 minutes and the supernatant was removed. To the cell pellets after washing was added 1 ml of pure water to suspend them therein. Ultrasonic disruption (intensity: 40%, 30 seconds) was then performed and the monosaccharide in the disrupted cell suspension was labeled with ABEE, followed by analysis by HPLC. From the area thus obtained, the sugar content in the cells was determined using a calibration curve. With respect to the ketose, two peaks were found after labeling with ABEE so that the sugar content in the cells was determined from the calibration curves of both peaks.

[2] = system: human bladder carcinoma cell line 253J; assay: Rare sugar uptake experiment, sugar content in disrupted cell suspension of 253J; assay type: cell-based
Procedure: as §1, §2, §3, §4, §5, §6

[3] = system: human prostate carcinoma cell line Du145; assay: Rare sugar uptake experiment, sugar content in disrupted cell suspension of Du145; assay type: cell-based
Procedure: as §1, §2, §3, §4, §5, §6

ACHN tumor = assay: D-allose concentration in tumor after intraperitoneal injection, ACHN xenograft mouse model; assay type: in vivo; conditions: ACHN xenograft mice, 400 mg/kg intraperitoneal
Procedure: (§7) The experiment of the present example used two human renal cell carcinoma cell lines (Caki-I and ACHN). Each cell was cultured under the wet environment of 37° C. and 5% CO2 by using a RPMI-1640 culture solution (2000 mg D-glucose/L) containing a 10% fetal calf serum, a HEPES buffer, and penicillin-streptomycin.
(§8) With respect to a renal cell carcinoma xenograft mouse model, a 1.0×10^5 cells/ml of a cell suspension was obtained by adjusting the cultured cells with a MEM culture solution and then 0.1 ml of the resulting suspension was injected into the femoral subcutaneous tissue of Female athymic nude mice (BALB/c-nu/nu, 6-week-old). After checking that the tumor volume was 200 mm^3 or more one week after the injection, the mice were provided for the experiment thereafter.
A 400 mg/kg/0.4 mL solution of rare sugar D-allose was prepared using physiological saline and was intraperitoneally injected into the xenograft mouse models of two human renal cell carcinoma cell lines (Caki-I and ACHN) through a 27 G needle. A tumor was enucleated from the mouse before […] administration and 1 hour, 2 hours, and 4 hours after the administration. […] A monosaccharide in the supernatant thus obtained was labeled with ABEE (4-aminobenzoic acid ethyl ester) and the quantitative analysis of D-allose was performed by HPLC (high performance liquid chromatography). […]

Caki-I tumor tissue = assay: Tumor tissue histology (necrosis area, nuclear fission), Caki-I xenograft mouse model; assay type: in vivo, mice; conditions: day 35
Procedure: as §7, §8
(§9) The day when the tumor size of the renal cell carcinoma xenograft mouse models became 200 mm^3 or more was called day 0 and the intraperitoneal injection of a D-allose-containing solution was started from day 1. The solution injected is 0.4 mL of physiological saline or a solution obtained by dissolving 100 mg/kg or 400 mg/kg of D-allose in 0.4 mL physiological saline. The resulting solution was intraperitoneally injected into three groups of mice (Control, 100 mg/kg of D-allose, and 400 mg/kg of D-allose) once a day for 5 weeks in total. The body weight of the mice and the long and short diameters of the tumor were measured over time twice a week. It is to be noted that the tumor volume was obtained as a product of long diameter×short diameter×short diameter of the tumor×0.5. On day 35 after the intraperitoneal injection was started, the tumor as well as the liver and kidney were excised from the mice and provided for the experiment performed thereafter.
The tissue of the excised tumor, kidney, and liver was fixed with a 4% paraformaldehyde phosphate buffer, embedded with paraffin, and sliced into a 4-μm thick section. The resulting sliced section was stained with hematoxylin and eosin and evaluated by a medical specialist in pathology. The influence of D-allose on the tumor tissue was evaluated by a necrosis area (%) and an image of the number of nuclear fissions (Cells/HPF). It is to be noted that the necrosis area was measured using an image recording software Nikon NIS—Elements D and figures after the decimal point were omitted. On the other hand, the number of nuclear fissions was obtained as an average of those of three fields of view and figures after the decimal point were also omitted. The anti-tumor effect of D-allose, more specifically, necrosis area and the number of nuclear fissions in the renal cell carcinoma xenograft mouse model are shown in Table 10.

[4] = Body weight in renal cell carcinoma xenograft mouse models; assay type: in vivo, mice; conditions: Control, 100 mg/kg and 400 mg/kg intraperitoneal once a day for 5 weeks; Mann-Whitney U test; FIG. 6
Procedure: as §9

[5] = 100 mg/kg intraperitoneal once a day
[6] = 400 mg/kg intraperitoneal once a day

Structure (SMILES): O=C[C@H](O)[C@H](O)[C@H](O)[C@H](O)CO [D-allose]
- D-glucose content in cell ([1]; RT112, named sugar added to RPMI-1640 at 10 mM, 48 hours, HPLC after ABEE labeling): 9.7 µg
- Content in cell of the added sugar ([1]; human, 48 h, 10 mM): 0.0 µg
- D-glucose content in cell ([2]; 253J, named sugar added to RPMI-1640 at 10 mM, 48 hours, HPLC after ABEE labeling): 11.5 µg
- Content in cell of the added sugar ([2]; human, 48 h, 10 mM): 0.0 µg
- D-glucose content in cell ([3]; Du145, named sugar added to RPMI-1640 at 10 mM, 48 hours, HPLC after ABEE labeling): 16.2 µg
- Content in cell of the added sugar ([3]; human, 48 h, 10 mM): 0.0 µg
- D-allose in tumor one hour after intraperitoneal injection (ACHN tumor; HPLC, FIG. 4): detected
- Time after injection at which D-allose concentration in tumor became the highest (ACHN tumor; sampled 1, 2, 4 hours): two
- Necrosis area (Caki-I tumor tissue; [5]): 22%
- Nuclear fission (Caki-I tumor tissue; [5]): 0.9 Cells/HPF
- Necrosis area (Caki-I tumor tissue; [6]): 33%
- Nuclear fission (Caki-I tumor tissue; [6]): 1 Cells/HPF
- Mice weight, difference among three groups [4]: No significant difference
